According to patent US20100144727A1, “Oxazolidine and Morpholine Carboxamide Derivatives as P2X7 Modulators” (priority 2007, published 2010):

molecular target: T1, human P2X7 receptor (Homo sapiens, UniProt Q99572); assay: Ethidium Accumulation Assay; type: cell-based; settings: HEK293 cells expressing human recombinant P2X7 receptors; 1 mM ATP; ethidium 100 μM; read-out: pIC50 in the Ethidium Accumulation Assay (antagonist, blocking ATP responses) (converted)
T1 construct: expressed in transfected cells; host or cells: HEK293
T1 sequence (Q99572 1-595): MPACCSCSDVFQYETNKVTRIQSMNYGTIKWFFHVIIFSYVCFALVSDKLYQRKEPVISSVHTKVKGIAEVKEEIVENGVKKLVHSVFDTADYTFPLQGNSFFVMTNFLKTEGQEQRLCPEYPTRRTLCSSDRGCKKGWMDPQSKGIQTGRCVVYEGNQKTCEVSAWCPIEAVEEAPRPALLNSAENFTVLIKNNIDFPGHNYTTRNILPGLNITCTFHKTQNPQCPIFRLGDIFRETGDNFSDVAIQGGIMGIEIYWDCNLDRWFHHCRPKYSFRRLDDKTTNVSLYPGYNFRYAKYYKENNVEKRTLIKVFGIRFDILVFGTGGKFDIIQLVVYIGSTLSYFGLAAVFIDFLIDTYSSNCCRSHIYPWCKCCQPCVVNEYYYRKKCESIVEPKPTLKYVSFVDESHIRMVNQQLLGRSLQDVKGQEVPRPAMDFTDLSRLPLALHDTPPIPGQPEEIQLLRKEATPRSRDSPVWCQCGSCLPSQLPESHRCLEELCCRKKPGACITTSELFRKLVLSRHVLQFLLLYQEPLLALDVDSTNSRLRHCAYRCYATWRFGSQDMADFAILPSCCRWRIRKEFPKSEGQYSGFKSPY
Procedure: Studies were performed using NaCl assay buffer of the following composition (in mM): 140 mM NaCl, HEPES 10, N-methyl-D-glucamine 5, KCl 5.6, D-glucose 10, CaCl2 0.5 (pH 7.4). HEK293 cells, expressing human recombinant P2X7 receptors, were grown in poly-L-lysine pretreated 96 well plates for 18-24 h. […] The cells were washed twice with 350 μl of assay buffer before addition of 50 μl of antagonist. The cells were then incubated at room temperature (19-21° C.) for 30 min before addition of ATP and ethidium (100 μM final assay concentration). The ATP concentration was chosen to be close to the EC80 for the receptor type and was 1 mM for studies on the human P2X7 receptor. Incubations were continued for 8 or 16 min and were terminated by addition of 25 μl of 1.3M sucrose containing 5 mM of the P2X7 receptor antagonist reactive black 5 (Aldrich). Cellular accumulation of ethidium was determined by measuring fluorescence (excitation wavelength of 530 nm and emission wavelength of 620 nm) from below the plate with a Canberra Packard Fluorocount (Pangbourne, UK). Antagonist pIC50 values for blocking ATP responses were determined using iterative curve fitting techniques.

| IC50 | Compound |
| --- | --- |
| ≤ 100 nM | CN1C(=O)OCC1C(=O)NCc1cccc(C(F)(F)F)c1Cl (stereo not shown) [Example E3, N-{[2-chloro-3-(trifluoromethyl)phenyl]methyl}-3-methyl-2-oxo-1,3-oxazolidine-4-carboxamide] |
| ≤ 100 nM | CCN1C(=O)OC[C@H]1C(=O)NCc1ccc(F)cc1Cl [Example E1, N-[(2-chloro-4-fluorophenyl)methyl]-3-ethyl-2-oxo-1,3-oxazolidine-4-carboxamide] |
| ≤ 100 nM | CN1C(=O)OC[C@H]1C(=O)NCc1cccc(C(F)(F)F)c1Cl [Example E4, N-{[2-chloro-3-(trifluoromethyl)phenyl]methyl}-3-methyl-2-oxo-1,3-oxazolidine-4-carboxamide] |
| ≤ 100 nM | CN1C(=O)COCC1C(=O)NCc1cccc(C(F)(F)F)c1Cl (stereo not shown) [Example E10, N-{[2-chloro-3-(trifluoromethyl)phenyl]methyl}-4-methyl-5-oxo-3-morpholinecarboxamide] |
